According to paper PMC12562668, “Targeting NFAT2 for Reversing the P-gp-Mediated Multidrug Resistance to Paclitaxel by Manidipine” (Cancers, 2025):

Assays:
[1] = target: T1, P-glycoprotein (P-gp) (Homo sapiens, UniProt P08183); assay: Pgp-Glo P-gp ATPase assay: stimulation of basal activity; also inhibition of verapamil-stimulated activity; type: biochemical
T1 construct: gene ABCB1

[2] = target: T2, NFAT2 (Homo sapiens, UniProt O95644); assay: DARTS in A549/T cell lysate with NFAT2 immunoblot; type: cell-based
T2 construct: gene NFATC1
T2 sequence (O95644 1-943): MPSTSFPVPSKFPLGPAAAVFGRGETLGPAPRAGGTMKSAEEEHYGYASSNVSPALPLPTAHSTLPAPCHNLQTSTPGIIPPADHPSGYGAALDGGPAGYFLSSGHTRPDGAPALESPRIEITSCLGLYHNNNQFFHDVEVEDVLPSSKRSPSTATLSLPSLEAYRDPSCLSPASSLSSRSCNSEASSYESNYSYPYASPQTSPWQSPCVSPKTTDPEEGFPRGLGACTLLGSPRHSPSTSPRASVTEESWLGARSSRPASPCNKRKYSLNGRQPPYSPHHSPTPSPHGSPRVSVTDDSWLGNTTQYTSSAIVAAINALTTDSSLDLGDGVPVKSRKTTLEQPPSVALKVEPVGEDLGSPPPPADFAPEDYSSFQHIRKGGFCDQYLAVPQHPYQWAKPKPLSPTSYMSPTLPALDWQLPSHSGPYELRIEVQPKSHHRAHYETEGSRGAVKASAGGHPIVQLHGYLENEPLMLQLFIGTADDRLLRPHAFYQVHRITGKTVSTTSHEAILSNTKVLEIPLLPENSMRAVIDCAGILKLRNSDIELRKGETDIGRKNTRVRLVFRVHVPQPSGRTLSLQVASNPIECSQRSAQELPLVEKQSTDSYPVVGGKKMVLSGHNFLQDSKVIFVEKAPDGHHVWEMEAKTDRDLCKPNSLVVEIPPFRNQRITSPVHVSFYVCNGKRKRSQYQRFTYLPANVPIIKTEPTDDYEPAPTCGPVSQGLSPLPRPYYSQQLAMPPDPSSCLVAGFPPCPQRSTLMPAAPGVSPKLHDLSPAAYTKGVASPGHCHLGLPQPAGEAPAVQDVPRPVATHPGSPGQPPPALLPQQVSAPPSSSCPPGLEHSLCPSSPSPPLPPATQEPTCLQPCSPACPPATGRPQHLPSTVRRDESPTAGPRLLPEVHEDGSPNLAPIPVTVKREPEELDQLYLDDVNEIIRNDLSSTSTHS

T1 sequence (P08183 whole entry): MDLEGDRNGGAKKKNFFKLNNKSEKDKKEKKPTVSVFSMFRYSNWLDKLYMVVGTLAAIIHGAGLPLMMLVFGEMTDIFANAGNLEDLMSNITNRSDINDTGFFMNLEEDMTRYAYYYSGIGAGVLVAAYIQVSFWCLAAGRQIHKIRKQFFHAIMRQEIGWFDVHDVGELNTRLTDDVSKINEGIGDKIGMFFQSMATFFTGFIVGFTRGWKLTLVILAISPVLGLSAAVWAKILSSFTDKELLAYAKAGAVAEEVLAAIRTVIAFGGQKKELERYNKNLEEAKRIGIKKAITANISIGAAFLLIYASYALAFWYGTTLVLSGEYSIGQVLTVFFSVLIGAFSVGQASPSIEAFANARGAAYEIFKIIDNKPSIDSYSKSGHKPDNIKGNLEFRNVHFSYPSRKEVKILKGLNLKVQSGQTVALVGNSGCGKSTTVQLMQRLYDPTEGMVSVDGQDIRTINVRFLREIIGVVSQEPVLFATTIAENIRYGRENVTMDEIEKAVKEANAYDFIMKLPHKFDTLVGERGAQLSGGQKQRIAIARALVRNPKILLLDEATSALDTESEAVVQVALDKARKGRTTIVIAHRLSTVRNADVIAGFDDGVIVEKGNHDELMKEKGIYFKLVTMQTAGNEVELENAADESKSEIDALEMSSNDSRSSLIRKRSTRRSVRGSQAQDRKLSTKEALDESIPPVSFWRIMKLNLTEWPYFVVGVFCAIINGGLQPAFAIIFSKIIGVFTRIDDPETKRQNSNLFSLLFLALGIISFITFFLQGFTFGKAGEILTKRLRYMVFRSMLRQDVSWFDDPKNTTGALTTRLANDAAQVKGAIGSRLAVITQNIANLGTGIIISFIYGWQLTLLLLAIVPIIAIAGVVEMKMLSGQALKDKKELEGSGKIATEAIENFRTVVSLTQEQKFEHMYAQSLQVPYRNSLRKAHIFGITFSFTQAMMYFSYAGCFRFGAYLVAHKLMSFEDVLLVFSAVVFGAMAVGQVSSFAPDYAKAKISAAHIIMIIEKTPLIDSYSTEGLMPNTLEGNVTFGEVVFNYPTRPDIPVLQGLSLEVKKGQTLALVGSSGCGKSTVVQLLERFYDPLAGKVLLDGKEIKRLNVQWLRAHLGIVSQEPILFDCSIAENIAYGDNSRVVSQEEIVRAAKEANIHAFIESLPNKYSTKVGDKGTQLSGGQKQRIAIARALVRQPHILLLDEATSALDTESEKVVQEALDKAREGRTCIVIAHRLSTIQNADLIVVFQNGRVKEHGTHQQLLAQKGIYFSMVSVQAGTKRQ

EC50 [1]: 4.16 µM
Structure (SMILES): COC(=O)C1=C(C)NC(C)=C(C(=O)OCCN2CCN(C(c3ccccc3)c3ccccc3)CC2)C1c1cccc([N+](=O)[O-])c1 (centres unmarked) [MA, manidipine]
DARTS in A549/T cell lysate with NFAT2 immunoblot [2]: MA effectively protected the NFAT2 protein from proteolysis (Figure 7F,G), thereby indicating that MA is a ligand of NFAT2
